Legend:
CP50-MEL-B = test: cells; assay type: functional, cell-based, Homo sapiens; details: Homo sapiens, CP50-MEL-B;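 also: growth inhibition of the human cell line, measured with a cell viability read-out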
Description: SANGER: Inhibition of human CP50-MEL-B cell growth in a cell viability assay.

Daoy = test: cells; assay type: functional, cell-based, Homo sapiens; details: Homo sapiens, Daoy;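 also: daoy cell growth inhibition, read out as cell viability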
Description: SANGER: Inhibition of human Daoy cell growth in a cell viability assay.

Daudi = test: cells; assay type: functional, cell-based, Homo sapiens; details: Homo sapiens, Daudi;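 also: growth inhibition of Daudi cells, read out by a viability assay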
Description: SANGER: Inhibition of human Daudi cell growth in a cell viability assay.

EB-3 = test: cells; assay type: functional, cell-based, Homo sapiens; details: Homo sapiens, EB-3;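 also: human EB-3 cells, growth inhibition read out via a cell viability assay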
Description: SANGER: Inhibition of human EB-3 cell growth in a cell viability assay.

ESS-1 = test: cells; assay type: functional, cell-based, Homo sapiens; details: Homo sapiens, ESS-1;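 also: growth inhibition of human ESS-1 cells, read out by a cell viability assay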
Description: SANGER: Inhibition of human ESS-1 cell growth in a cell viability assay.

GAMG = test: cells; assay type: functional, cell-based, Homo sapiens; details: Homo sapiens, GAMG;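 also: cell growth inhibition measured by a viability assay in the GAMG human cell line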
Description: SANGER: Inhibition of human GAMG cell growth in a cell viability assay.

HCT-116 = test: cells; assay type: functional, cell-based, Homo sapiens; details: Homo sapiens, HCT-116
Description: SANGER: Inhibition of human HCT-116 cell growth in a cell viability assay.

HLE = test: cells; assay type: functional, cell-based, Homo sapiens; details: Homo sapiens, HLE;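 also: growth inhibition of human HLE cells, read out by a cell viability assay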
Description: SANGER: Inhibition of human HLE cell growth in a cell viability assay.

HPAF-II = test: cells; assay type: functional, cell-based, Homo sapiens; details: Homo sapiens, HPAF-II;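 also: growth inhibition of HPAF-II cells, read out with a cell viability assay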
Description: SANGER: Inhibition of human HPAF-II cell growth in a cell viability assay.

KOSC-2 = test: cells; assay type: functional, cell-based, Homo sapiens; details: Homo sapiens, KOSC-2;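 also: growth inhibition of KOSC-2 cells, read out by a cell viability assay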
Description: SANGER: Inhibition of human KOSC-2 cell growth in a cell viability assay.

M14 = test: cells; assay type: functional, cell-based, Homo sapiens; details: Homo sapiens, M14;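 also: growth inhibition of M14 cells, read out with a cell viability assay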
Description: SANGER: Inhibition of human M14 cell growth in a cell viability assay.

MC-CAR = test: cells; assay type: functional, cell-based, Homo sapiens; details: Homo sapiens, MC-CAR;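 also: growth inhibition of the human MC-CAR cell line, read out by a cell viability assay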
Description: SANGER: Inhibition of human MC-CAR cell growth in a cell viability assay.

MC-IXC = test: cells; assay type: functional, cell-based, Homo sapiens; details: Homo sapiens, MC-IXC;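 also: growth inhibition of MC-IXC cells, read out with a cell viability assay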
Description: SANGER: Inhibition of human MC-IXC cell growth in a cell viability assay.

MDA-MB-175-VII = test: cells; assay type: functional, cell-based, Homo sapiens; details: Homo sapiens, MDA-MB-175-VII
MFE-280 = test: cells; assay type: functional, cell-based, Homo sapiens; details: Homo sapiens, MFE-280;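 also: growth inhibition of MFE-280 cells, determined with a cell viability readout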
Description: SANGER: Inhibition of human MFE-280 cell growth in a cell viability assay.

MKN-45 = test: cells; assay type: functional, cell-based, Homo sapiens; details: Homo sapiens, MKN-45;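 also: growth inhibition of human MKN-45 cells, measured with a cell viability assay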
Description: SANGER: Inhibition of human MKN45 cell growth in a cell viability assay.

NCI-H1563 = test: cells; assay type: functional, cell-based, Homo sapiens; details: Homo sapiens, NCI-H1563;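 also: growth inhibition of human NCI-H1563 cells, read out with a cell viability assay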
Description: SANGER: Inhibition of human NCI-H1563 cell growth in a cell viability assay.

NCI-H2171 = test: cells; assay type: functional, cell-based, Homo sapiens; details: Homo sapiens, NCI-H2171;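 also: growth inhibition of human NCI-H2171 cells, read out by a cell viability assay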
Description: SANGER: Inhibition of human NCI-H2171 cell growth in a cell viability assay.

NCI-H2452 = test: cells; assay type: functional, cell-based, Homo sapiens; details: Homo sapiens, NCI-H2452;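 also: growth inhibition of NCI-H2452 cells, read out with a cell viability assay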
Description: SANGER: Inhibition of human NCI-H2452 cell growth in a cell viability assay.

NCI-H322M = test: cells; assay type: functional, cell-based, Homo sapiens; details: Homo sapiens, NCI-H322M;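 also: cell viability assay measuring inhibition of growth of human NCI-H322M cells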
Description: SANGER: Inhibition of human NCI-H322M cell growth in a cell viability assay.

NCI-H716 = test: cells; assay type: functional, cell-based, Homo sapiens; details: Homo sapiens, NCI-H716;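 also: growth inhibition of human NCI-H716 cells, measured by a cell viability assay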
Description: SANGER: Inhibition of human NCI-H716 cell growth in a cell viability assay.

NCI-H748 = test: cells; assay type: functional, cell-based, Homo sapiens; details: Homo sapiens, NCI-H748;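 also: growth inhibition of NCI-H748 cells, measured by a cell viability assay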
Description: SANGER: Inhibition of human NCI-H748 cell growth in a cell viability assay.

NY = test: cells; assay type: functional, cell-based, Homo sapiens; details: Homo sapiens, NY
Description: SANGER: Inhibition of human NY cell growth in a cell viability assay.

OVCAR-5 = test: cells; assay type: functional, cell-based, Homo sapiens; details: Homo sapiens, OVCAR-5;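 also: growth inhibition of human OVCAR-5 cells, read out with a cell viability assay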
Description: SANGER: Inhibition of human OVCAR-5 cell growth in a cell viability assay.

PF-382 = test: cells; assay type: functional, cell-based, Homo sapiens; details: Homo sapiens, PF-382
Description: SANGER: Inhibition of human PF-382 cell growth in a cell viability assay.

RCM-1 = test: cells; assay type: functional, cell-based, Homo sapiens; details: Homo sapiens, RCM-1;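 also: growth inhibition of the RCM-1 line, determined with a cell viability readout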
Description: SANGER: Inhibition of human RCM-1 cell growth in a cell viability assay.

REH = test: cells; assay type: functional, cell-based, Homo sapiens; details: Homo sapiens, REH;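 also: growth inhibition of REH cells determined with a cell viability read-out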
Description: SANGER: Inhibition of human REH cell growth in a cell viability assay.

RL = test: cells; assay type: functional, cell-based, Homo sapiens; details: Homo sapiens, RL
Description: SANGER: Inhibition of human RL cell growth in a cell viability assay.

Raji = test: cells; assay type: functional, cell-based, Homo sapiens; details: Homo sapiens, Raji;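 also: cell viability assay measuring inhibition of Raji cell growth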
Description: SANGER: Inhibition of human Raji cell growth in a cell viability assay.

SCLC-21H = test: cells; assay type: functional, cell-based, Homo sapiens; details: Homo sapiens, SCLC-21H;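 also: growth inhibition of cultured human SCLC-21H cells, read out with a cell viability assay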
Description: SANGER: Inhibition of human SCLC-21H cell growth in a cell viability assay.

SIG-M5 = test: cells; assay type: functional, cell-based, Homo sapiens; details: Homo sapiens, SIG-M5;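 also: cell viability assay read-out, measuring how strongly growth of cultured human SIG-M5 cells is inhibited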
Description: SANGER: Inhibition of human SIG-M5 cell growth in a cell viability assay.

SK-LU-1 = test: cells; assay type: functional, cell-based, Homo sapiens; details: Homo sapiens, SK-LU-1;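 also: cell viability assay measuring growth inhibition of human SK-LU-1 cells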
Description: SANGER: Inhibition of human SK-LU-1 cell growth in a cell viability assay.

SKG-IIIa = test: cells; assay type: functional, cell-based, Homo sapiens; details: Homo sapiens, SKG-IIIa;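 also: cell growth inhibition, read out with a cell viability assay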
Description: SANGER: Inhibition of human SKG-IIIa cell growth in a cell viability assay.

SNU-449 = test: cells; assay type: functional, cell-based, Homo sapiens; details: Homo sapiens, SNU-449
Description: SANGER: Inhibition of human SNU-449 cell growth in a cell viability assay.

SW1573 = test: cells; assay type: functional, cell-based, Homo sapiens; details: Homo sapiens, SW1573;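 also: growth inhibition of SW1573 cells, read out with a cell viability assay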
Description: SANGER: Inhibition of human SW1573 cell growth in a cell viability assay.

CWR22R = test: cells; assay type: functional, cell-based, Homo sapiens; details: Homo sapiens, 22Rv1;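 also: growth inhibition of 22Rv1 cells, read out with a cell viability assay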
Description: SANGER: Inhibition of human 22RV1 cell growth in a cell viability assay.

ABC-1 = test: cells; assay type: functional, cell-based, Homo sapiens; details: Homo sapiens, ABC-1;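 also: growth inhibition of human ABC-1 cells, read out by a cell viability assay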
Description: SANGER: Inhibition of human ABC-1 cell growth in a cell viability assay.

AN3-CA = test: cells; assay type: functional, cell-based, Homo sapiens; details: Homo sapiens, AN3-CA;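 also: growth inhibition of human AN3-CA cells measured by a cell viability assay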
Description: SANGER: Inhibition of human AN3-CA cell growth in a cell viability assay.

ARH-77 = test: cells; assay type: functional, cell-based, Homo sapiens; details: Homo sapiens, ARH-77;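 also: growth inhibition of ARH-77 cells, read out by a cell viability assay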
Description: SANGER: Inhibition of human ARH-77 cell growth in a cell viability assay.

BC1 cell line = test: SANGER: Inhibition of human BC-1 cell growth in a cell viability assay.; assay type: functional, cell-based; details: Homo sapiens, BC1
BFTC-909 = test: cells; assay type: functional, cell-based, Homo sapiens; details: Homo sapiens, BFTC-909
Description: SANGER: Inhibition of human BFTC-909 cell growth in a cell viability assay.

CAL-148 = test: cells; assay type: functional, cell-based, Homo sapiens; details: Homo sapiens, CAL-148
Description: SANGER: Inhibition of human CAL-148 cell growth in a cell viability assay.

CAL-39 = test: cells; assay type: functional, cell-based, Homo sapiens; details: Homo sapiens, CAL-39;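 also: cell viability assay measuring growth inhibition of CAL-39 cells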
Description: SANGER: Inhibition of human CAL-39 cell growth in a cell viability assay.

THP-1 = test: cells; assay type: functional, cell-based, Homo sapiens; details: Homo sapiens, THP-1;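 also: growth inhibition of THP-1 cells, read out via a cell viability assay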
Description: SANGER: Inhibition of human THP-1 cell growth in a cell viability assay.

WSU-NHL = test: cells; assay type: functional, cell-based, Homo sapiens; details: Homo sapiens, WSU-NHL;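 also: growth inhibition of human WSU-NHL cells, read out with a cell viability assay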
Description: SANGER: Inhibition of human WSU-NHL cell growth in a cell viability assay.

With `O=C(O)c1ccc(-c2c[nH]c3ncc(-c4ccccc4)cc23)cc1C1CCCC1` [GSK-650394] the IC50 (CP50-MEL-B) was > 16 µM, the IC50 (Daoy) was 0.515 µM and the IC50 (Daudi) was > 16 µM. The IC50 (EB-3) was > 16 µM, the IC50 (ESS-1) was > 16 µM and the IC50 (GAMG) was 3.9 µM. The IC50 (HCT-116) was > 16 µM, the IC50 (HLE) was 1.43 µM and the IC50 (HPAF-II) was > 16 µM. For the same compound, the IC50 (KOSC-2) was > 16 µM, the IC50 (M14) was > 16 µM and the IC50 (MC-CAR) was > 16 µM. The IC50 (MC-IXC) was > 16 µM, the IC50 (MDA-MB-175-VII) was > 16 µM and the IC50 (MFE-280) was > 16 µM. The IC50 (MKN-45) was > 16 µM, the IC50 (NCI-H1563) was > 16 µM and the IC50 (NCI-H2171) was > 16 µM. The IC50 (NCI-H2452) was > 16 µM, the IC50 (NCI-H322M) was > 16 µM and the IC50 (NCI-H716) was > 16 µM. The IC50 (NCI-H748) was > 16 µM, the IC50 (NY) was > 16 µM and the IC50 (OVCAR-5) was > 16 µM. For the same compound, the IC50 (PF-382) was > 16 µM, the IC50 (RCM-1) was > 16 µM and the IC50 (REH) was > 16 µM. The IC50 (RL) was > 16 µM, the IC50 (Raji) was > 16 µM and the IC50 (SCLC-21H) was > 16 µM. For the same compound, the IC50 (SIG-M5) was 4.88 µM, the IC50 (SK-LU-1) was 3.97 µM and the IC50 (SKG-IIIa) was > 16 µM. For the same compound, the IC50 (SNU-449) was > 16 µM, the IC50 (SW1573) was > 16 µM and the IC50 (CWR22R) was > 16 µM. The IC50 (ABC-1) was 6.58 µM, the IC50 (AN3-CA) was 7.66 µM and the IC50 (ARH-77) was > 16 µM. The IC50 (BC1 cell line) was 2.52 µM, the IC50 (BFTC-909) was 14.6 µM and the IC50 (CAL-148) was > 16 µM. The IC50 (CAL-39) was 9.31 µM, the IC50 (THP-1) was > 16 µM and the IC50 (WSU-NHL) was > 16 µM.

In the case of `CCC/C=C/C=C/C(=O)O[C@H]1/C(=C/C(=O)OC)C[C@H]2C[C@H]([C@@H](C)O)OC(=O)C[C@H](O)C[C@@H]3C[C@H](OC(C)=O)C(C)(C)[C@](O)(C[C@@H]4C/C(=C/C(=O)OC)C[C@H](/C=C/C(C)(C)[C@]1(O)O2)O4)O3` [BRYOSTATIN 1], the IC50 (CP50-MEL-B) is reported as > 0.008 µM, the IC50 (Daoy) is reported as > 0.008 µM and the IC50 (Daudi) is reported as > 0.008 µM. The IC50 (EB-3) was > 0.008 µM, the IC50 (ESS-1) was > 0.008 µM and the IC50 (GAMG) was > 0.008 µM. The IC50 (HCT-116) was > 0.008 µM, the IC50 (HLE) was > 0.008 µM and the IC50 (HPAF-II) was > 0.008 µM. For the same compound, the IC50 (KOSC-2) was > 0.008 µM, the IC50 (M14) was > 0.008 µM and the IC50 (MC-CAR) was > 0.008 µM. For the same compound, the IC50 (MC-IXC) was > 0.008 µM, the IC50 (MDA-MB-175-VII) was > 0.008 µM and the IC50 (MFE-280) was > 0.008 µM. For the same compound, the IC50 (MKN-45) was > 0.008 µM, the IC50 (NCI-H1563) was > 0.008 µM and the IC50 (NCI-H2171) was > 0.008 µM. For the same compound, the IC50 (NCI-H2452) was > 0.008 µM, the IC50 (NCI-H322M) was > 0.008 µM and the IC50 (NCI-H716) was > 0.008 µM. The IC50 (NCI-H748) was > 0.008 µM, the IC50 (NY) was > 0.008 µM and the IC50 (OVCAR-5) was > 0.008 µM. For the same compound, the IC50 (PF-382) was > 0.008 µM, the IC50 (RCM-1) was > 0.008 µM and the IC50 (REH) was > 0.008 µM. For the same compound, the IC50 (RL) was > 0.008 µM, the IC50 (Raji) was > 0.008 µM and the IC50 (SCLC-21H) was > 0.008 µM. For the same compound, the IC50 (SIG-M5) was 0.00156 µM, the IC50 (SK-LU-1) was > 0.008 µM and the IC50 (SKG-IIIa) was > 0.008 µM. The IC50 (SNU-449) was > 0.008 µM, the IC50 (SW1573) was > 0.008 µM and the IC50 (CWR22R) was > 0.008 µM. For the same compound, the IC50 (ABC-1) was > 0.008 µM, the IC50 (AN3-CA) was > 0.008 µM and the IC50 (ARH-77) was > 0.008 µM. For the same compound, the IC50 (BC1 cell line) was > 0.008 µM, the IC50 (BFTC-909) was > 0.008 µM and the IC50 (CAL-148) was > 0.008 µM. For the same compound, the IC50 (CAL-39) was > 0.008 µM, the IC50 (THP-1) was > 0.008 µM and the IC50 (WSU-NHL) was > 0.008 µM.

With `C=C(c1ccc(C(=O)O)cc1)c1cc2c(cc1C)C(C)(C)CCC2(C)C` [BEXAROTENE] the IC50 (CP50-MEL-B) was > 8 µM, the IC50 (Daoy) was > 8 µM and the IC50 (Daudi) was > 8 µM. The IC50 (EB-3) was > 8 µM, the IC50 (ESS-1) was > 8 µM and the IC50 (GAMG) was > 8 µM. The IC50 (HCT-116) was > 8 µM, the IC50 (HLE) was > 8 µM and the IC50 (HPAF-II) was > 8 µM. For the same compound, the IC50 (KOSC-2) was > 8 µM, the IC50 (M14) was > 8 µM and the IC50 (MC-CAR) was > 8 µM. The IC50 (MC-IXC) was 7.97 µM, the IC50 (MDA-MB-175-VII) was > 8 µM and the IC50 (MFE-280) was > 8 µM. The IC50 (MKN-45) was > 8 µM, the IC50 (NCI-H1563) was > 8 µM and the IC50 (NCI-H2171) was > 8 µM. The IC50 (NCI-H2452) was > 8 µM, the IC50 (NCI-H322M) was > 8 µM and the IC50 (NCI-H716) was > 8 µM. For the same compound, the IC50 (NCI-H748) was > 8 µM, the IC50 (NY) was > 8 µM and the IC50 (OVCAR-5) was > 8 µM. For the same compound, the IC50 (PF-382) was > 8 µM, the IC50 (RCM-1) was > 8 µM and the IC50 (REH) was > 8 µM. For the same compound, the IC50 (RL) was > 8 µM, the IC50 (Raji) was > 8 µM and the IC50 (SCLC-21H) was > 8 µM. The IC50 (SIG-M5) was < 0.0312 µM, the IC50 (SK-LU-1) was > 8 µM and the IC50 (SKG-IIIa) was > 8 µM. The IC50 (SNU-449) was > 8 µM, the IC50 (SW1573) was > 8 µM and the IC50 (CWR22R) was > 8 µM. For the same compound, the IC50 (ABC-1) was > 8 µM, the IC50 (AN3-CA) was > 8 µM and the IC50 (ARH-77) was > 8 µM. For the same compound, the IC50 (BC1 cell line) was > 8 µM, the IC50 (BFTC-909) was > 8 µM and the IC50 (CAL-148) was > 8 µM. For the same compound, the IC50 (CAL-39) was > 8 µM, the IC50 (THP-1) was > 8 µM and the IC50 (WSU-NHL) was > 8 µM.
